Results from the NIST ThermoML archive (doi:10.1021/je4000372).

Assay: xn = mol fraction of the nth substance listed
Conditions: 101 kPa, Liquid; for viscosity: Capillary tube (Ostwald / Ubbelohde) method; for mass density: Pycnometric method

OCCN(CCO)CCO [triethanolamine] + CCCCOCCOCCO
Conditions | mass density, 293.15 K [kg/m3] | mass density, 303.15 K [kg/m3] | mass density, 313.15 K [kg/m3] | mass density, 323.15 K [kg/m3] | mass density, 333.15 K [kg/m3] | viscosity, 293.15 K [mPa·s] | viscosity, 303.15 K [mPa·s] | viscosity, 313.15 K [mPa·s] | viscosity, 323.15 K [mPa·s] | viscosity, 333.15 K [mPa·s]
x2 = 0 | 1124.3 | 1118.5 | 1112.8 | 1107.1 | 1101.5 | 917.6 | 404.7 | 203.9 | 108.3 | 64.2
x2 = 0.09279 | 1105.1 | 1098.9 | 1093.1 | 1087.2 | 1081.4 | 491.9 | 228.3 | 112.58 | 69.65 | 43.5
x2 = 0.1871 | 1086.3 | 1079.9 | 1073.9 | 1067.5 | 1061.6 | 269.8 | 126.6 | 67.74 | 44.43 | 28.3
x2 = 0.2841 | 1067.9 | 1061 | 1054.8 | 1048.1 | 1041.8 | 153.2 | 69.69 | 40.77 | 28.48 | 18.4
x2 = 0.3804 | 1050.4 | 1043.1 | 1036.7 | 1029.5 | 1022.9 | 85.31 | 41.88 | 25.92 | 17.59 | 12.6
x2 = 0.4787 | 1033.3 | 1025.6 | 1018.9 | 1011.4 | 1004.5 | 50.08 | 26.39 | 16.38 | – | 8.97
x2 = 0.5789 | 1016.5 | 1008.5 | 1001.6 | 993.7 | 986.6 | 30.52 | 17.51 | 10.81 | 8.79 | 6.52
x2 = 0.6816 | 999.9 | 991.7 | 984.6 | 976.4 | 969 | 18.81 | 10.74 | 7.41 | 5.83 | 4.71
x2 = 0.7855 | 983.9 | 975.2 | 967.9 | 959.5 | 951.9 | 12.36 | 8.16 | – | 4.35 | 3.54
x2 = 0.8923 | 968.1 | 959.1 | 951.5 | 942.7 | 934.9 | 8.49 | 6.01 | – | 3.39 | 2.67
